These results are taken from ChEMBL document CHEMBL5465560, “Selectivity Literature for EUbOPEN Chemogenomic Library” (2024).

The structures appear in SMILES notation.

The target of assay [1] is Calcium/calmodulin-dependent protein kinase type II subunit alpha (Homo sapiens, UniProt Q9UQM7). The assay can be described thus: Selectivity interaction (Upstate Kinase Profiler service (Millipore, enzymatic assay)) EUB0000056c CAMK2A.
For assay [2], the target named is T1, Tyrosine-protein kinase ZAP-70 (Homo sapiens) (UniProt P43403).
T1 sequence (whole entry): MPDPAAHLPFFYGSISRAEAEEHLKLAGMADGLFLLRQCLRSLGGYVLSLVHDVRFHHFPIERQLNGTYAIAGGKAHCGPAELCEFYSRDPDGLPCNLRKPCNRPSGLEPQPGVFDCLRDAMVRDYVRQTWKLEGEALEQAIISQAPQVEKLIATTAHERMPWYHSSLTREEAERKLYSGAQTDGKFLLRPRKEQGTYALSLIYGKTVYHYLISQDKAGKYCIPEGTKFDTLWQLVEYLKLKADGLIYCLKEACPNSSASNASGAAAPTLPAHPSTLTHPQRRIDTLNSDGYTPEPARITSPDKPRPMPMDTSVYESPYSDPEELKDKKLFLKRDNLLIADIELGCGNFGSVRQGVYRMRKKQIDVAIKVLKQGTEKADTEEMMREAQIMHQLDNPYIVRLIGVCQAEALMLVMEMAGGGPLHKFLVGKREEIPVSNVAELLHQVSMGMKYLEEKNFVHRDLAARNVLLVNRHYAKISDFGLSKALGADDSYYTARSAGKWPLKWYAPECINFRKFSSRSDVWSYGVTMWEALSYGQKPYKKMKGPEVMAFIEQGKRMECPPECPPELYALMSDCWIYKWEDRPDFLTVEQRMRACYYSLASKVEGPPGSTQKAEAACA
The settings on record: at 10 µM.

The target in assay [3] is T2, Mitogen-activated protein kinase kinase kinase 2 (Homo sapiens) (UniProt Q9Y2U5).
T2 sequence (whole entry): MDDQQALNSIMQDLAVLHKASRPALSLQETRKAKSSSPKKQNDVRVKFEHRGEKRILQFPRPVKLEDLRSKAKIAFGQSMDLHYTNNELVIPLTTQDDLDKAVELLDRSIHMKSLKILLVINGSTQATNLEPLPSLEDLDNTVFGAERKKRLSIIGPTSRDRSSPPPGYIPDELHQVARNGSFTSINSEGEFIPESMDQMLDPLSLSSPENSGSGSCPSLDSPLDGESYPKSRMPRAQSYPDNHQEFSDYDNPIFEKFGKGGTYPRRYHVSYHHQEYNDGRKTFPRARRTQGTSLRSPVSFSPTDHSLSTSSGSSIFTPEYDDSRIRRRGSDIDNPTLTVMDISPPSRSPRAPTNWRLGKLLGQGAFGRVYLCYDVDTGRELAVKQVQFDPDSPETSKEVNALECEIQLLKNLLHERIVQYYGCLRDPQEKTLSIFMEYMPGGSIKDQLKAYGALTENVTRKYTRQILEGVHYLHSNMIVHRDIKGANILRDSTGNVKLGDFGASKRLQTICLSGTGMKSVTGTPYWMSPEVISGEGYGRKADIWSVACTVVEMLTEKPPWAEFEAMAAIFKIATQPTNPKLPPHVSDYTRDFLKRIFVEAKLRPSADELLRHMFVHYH
The experiment in a line: Selectivity interaction (KinomeScan (DiscoverX)) EUB0000092b MAP3K2. Particulars: at 10 µM.

The target of assay [4] is Mitogen-activated protein kinase kinase kinase 9 (Homo sapiens) (UniProt P80192). The experiment in a line: Selectivity interaction (KinomeScan (DiscoverX)) EUB0000655a MAP3K9. The settings on record: at 10 µM.
Assay [5] has as its target Cysteinyl leukotriene receptor 1 (Homo sapiens) (UniProt Q9Y271). The assay can be described thus: Selectivity interaction (Eurofins CEREP Diversity Profile (receptors and ion channels)) EUB0000279b CYSLTR1. The settings on record: at 10 µM.
Assay [6] deals with T3, Inhibitor of nuclear factor kappa-B kinase subunit epsilon (Homo sapiens) (UniProt Q14164).
T3 sequence (whole entry): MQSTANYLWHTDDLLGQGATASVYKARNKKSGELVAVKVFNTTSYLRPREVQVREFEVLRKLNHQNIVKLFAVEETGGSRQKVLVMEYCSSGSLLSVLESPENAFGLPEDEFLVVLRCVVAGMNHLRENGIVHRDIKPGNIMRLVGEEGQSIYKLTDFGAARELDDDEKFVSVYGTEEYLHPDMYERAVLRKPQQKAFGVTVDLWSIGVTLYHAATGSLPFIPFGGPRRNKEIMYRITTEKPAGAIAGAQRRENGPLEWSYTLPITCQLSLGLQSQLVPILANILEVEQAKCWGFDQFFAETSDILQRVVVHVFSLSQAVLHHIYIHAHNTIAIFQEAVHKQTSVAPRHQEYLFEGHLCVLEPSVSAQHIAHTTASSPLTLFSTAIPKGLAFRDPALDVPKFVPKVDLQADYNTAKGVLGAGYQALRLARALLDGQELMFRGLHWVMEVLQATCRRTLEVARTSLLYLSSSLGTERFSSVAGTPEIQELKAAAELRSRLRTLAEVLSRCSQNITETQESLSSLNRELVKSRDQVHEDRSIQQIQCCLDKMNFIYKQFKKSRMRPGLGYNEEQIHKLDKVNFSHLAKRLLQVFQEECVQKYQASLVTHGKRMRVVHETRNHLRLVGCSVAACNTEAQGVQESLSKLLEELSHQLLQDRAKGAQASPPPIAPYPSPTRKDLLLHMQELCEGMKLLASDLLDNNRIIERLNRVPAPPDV
The assay can be described thus: Selectivity interaction (KinomeScan (DiscoverX)) EUB0000607a IKBKE. Particulars: at 10 µM.

In assay [7] the target is Serine/threonine-protein kinase 10 (Homo sapiens) (UniProt O94804). The experiment in a line: Selectivity interaction (ActivX KiNativ screen (kinase selectivity in THP-1 cell lysates)) EUB0000639a STK10. Type of assay: subcellular. Particulars: lysate, at 0.04 µM.
Assay [8] deals with Serine/threonine-protein kinase PRP4 homolog (Homo sapiens) (UniProt Q13523). The experiment in a line: Selectivity interaction (ActivX KiNativ screen (kinase selectivity in THP-1 cell lysates)) EUB0000639a PRPF4. Type of assay: subcellular. The settings on record: lysate, at 1 µM.
Assay [9] deals with Mitogen-activated protein kinase kinase kinase kinase 1 (Homo sapiens) (UniProt Q92918). The assay can be described thus: Selectivity interaction (KinomeScan (DiscoverX)) EUB0000229b MAP4K1. The settings on record: at 10 µM.
The target in assay [10] is 4-aminobutyrate aminotransferase, mitochondrial (Homo sapiens, UniProt P80404). The experiment in a line: Selectivity interaction (GPCR panel (PDSP screen)) EUB0000311b ABAT.
Assay [11] has as its target Tyrosine-protein kinase SYK (Homo sapiens, UniProt P43405). The assay can be described thus: Selectivity interaction (KinomeScan (DiscoverX)) EUB0000618a SYK. The settings on record: at 10 µM.

Serine/threonine-protein kinase PRP4 homolog (Homo sapiens), sequence (Q13523 whole entry): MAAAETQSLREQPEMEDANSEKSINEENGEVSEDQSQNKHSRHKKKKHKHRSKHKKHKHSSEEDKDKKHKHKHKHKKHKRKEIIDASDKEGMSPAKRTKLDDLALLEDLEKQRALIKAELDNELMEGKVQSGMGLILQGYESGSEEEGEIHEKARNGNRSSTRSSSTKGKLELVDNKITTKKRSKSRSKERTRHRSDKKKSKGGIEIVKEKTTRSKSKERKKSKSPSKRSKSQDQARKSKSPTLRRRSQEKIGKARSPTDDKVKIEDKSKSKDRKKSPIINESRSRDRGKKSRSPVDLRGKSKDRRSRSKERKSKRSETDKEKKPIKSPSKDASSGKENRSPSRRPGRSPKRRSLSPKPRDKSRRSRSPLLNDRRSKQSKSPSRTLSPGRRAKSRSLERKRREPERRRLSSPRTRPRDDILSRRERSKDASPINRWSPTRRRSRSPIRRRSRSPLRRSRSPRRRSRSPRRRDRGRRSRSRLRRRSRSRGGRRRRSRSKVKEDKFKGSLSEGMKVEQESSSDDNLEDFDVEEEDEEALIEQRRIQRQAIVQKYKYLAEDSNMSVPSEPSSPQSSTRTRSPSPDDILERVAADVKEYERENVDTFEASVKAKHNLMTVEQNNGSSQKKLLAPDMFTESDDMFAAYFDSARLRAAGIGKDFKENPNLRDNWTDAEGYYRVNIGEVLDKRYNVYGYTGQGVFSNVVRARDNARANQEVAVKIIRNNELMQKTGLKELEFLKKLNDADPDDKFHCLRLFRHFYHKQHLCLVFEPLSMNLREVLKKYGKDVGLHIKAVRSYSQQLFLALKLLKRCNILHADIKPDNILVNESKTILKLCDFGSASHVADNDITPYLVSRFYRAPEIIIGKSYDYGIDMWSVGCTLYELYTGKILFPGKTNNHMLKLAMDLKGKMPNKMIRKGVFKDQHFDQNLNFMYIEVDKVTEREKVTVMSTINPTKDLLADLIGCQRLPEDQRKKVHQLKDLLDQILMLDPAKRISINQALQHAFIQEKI
Cysteinyl leukotriene receptor 1 (Homo sapiens), sequence (Q9Y271 whole entry): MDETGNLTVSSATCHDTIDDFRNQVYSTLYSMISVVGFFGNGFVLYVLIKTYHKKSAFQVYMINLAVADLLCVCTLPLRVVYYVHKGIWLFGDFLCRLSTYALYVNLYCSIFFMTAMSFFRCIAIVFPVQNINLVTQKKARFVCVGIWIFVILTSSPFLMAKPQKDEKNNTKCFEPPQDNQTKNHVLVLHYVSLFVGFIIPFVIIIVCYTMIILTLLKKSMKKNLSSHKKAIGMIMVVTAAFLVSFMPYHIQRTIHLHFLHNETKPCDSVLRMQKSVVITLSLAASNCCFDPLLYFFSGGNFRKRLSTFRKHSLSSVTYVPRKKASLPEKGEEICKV
Mitogen-activated protein kinase kinase kinase 9 (Homo sapiens), sequence (P80192 whole entry, looked up): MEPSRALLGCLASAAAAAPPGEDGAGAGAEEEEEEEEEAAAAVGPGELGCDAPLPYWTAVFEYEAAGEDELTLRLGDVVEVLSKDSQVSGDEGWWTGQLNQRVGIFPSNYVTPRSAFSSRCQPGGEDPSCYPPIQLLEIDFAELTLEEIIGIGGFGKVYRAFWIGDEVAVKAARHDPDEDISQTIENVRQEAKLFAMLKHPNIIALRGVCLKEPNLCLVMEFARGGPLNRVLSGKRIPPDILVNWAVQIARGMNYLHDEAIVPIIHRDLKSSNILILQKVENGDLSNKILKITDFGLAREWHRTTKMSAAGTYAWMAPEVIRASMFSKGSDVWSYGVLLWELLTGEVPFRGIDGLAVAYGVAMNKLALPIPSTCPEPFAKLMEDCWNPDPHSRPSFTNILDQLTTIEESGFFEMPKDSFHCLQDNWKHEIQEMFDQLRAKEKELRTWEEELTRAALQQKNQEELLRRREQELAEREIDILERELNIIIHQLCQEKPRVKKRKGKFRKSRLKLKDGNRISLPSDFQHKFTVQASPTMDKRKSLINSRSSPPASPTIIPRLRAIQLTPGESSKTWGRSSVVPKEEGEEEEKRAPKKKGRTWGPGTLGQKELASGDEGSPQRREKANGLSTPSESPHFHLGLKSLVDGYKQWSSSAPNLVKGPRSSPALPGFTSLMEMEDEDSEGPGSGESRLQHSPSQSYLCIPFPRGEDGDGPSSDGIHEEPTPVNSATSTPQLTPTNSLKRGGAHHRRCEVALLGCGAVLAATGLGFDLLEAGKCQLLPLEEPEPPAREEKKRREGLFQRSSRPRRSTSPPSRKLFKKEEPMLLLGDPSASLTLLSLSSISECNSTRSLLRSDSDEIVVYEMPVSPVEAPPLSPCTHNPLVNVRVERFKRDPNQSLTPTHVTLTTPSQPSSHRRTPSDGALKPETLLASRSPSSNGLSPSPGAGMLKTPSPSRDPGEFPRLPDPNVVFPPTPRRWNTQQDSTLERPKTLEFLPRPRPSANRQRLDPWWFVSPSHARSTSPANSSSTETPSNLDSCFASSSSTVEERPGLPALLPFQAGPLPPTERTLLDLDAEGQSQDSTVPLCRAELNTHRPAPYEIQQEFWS
Serine/threonine-protein kinase 10 (Homo sapiens), sequence (O94804 whole entry, looked up): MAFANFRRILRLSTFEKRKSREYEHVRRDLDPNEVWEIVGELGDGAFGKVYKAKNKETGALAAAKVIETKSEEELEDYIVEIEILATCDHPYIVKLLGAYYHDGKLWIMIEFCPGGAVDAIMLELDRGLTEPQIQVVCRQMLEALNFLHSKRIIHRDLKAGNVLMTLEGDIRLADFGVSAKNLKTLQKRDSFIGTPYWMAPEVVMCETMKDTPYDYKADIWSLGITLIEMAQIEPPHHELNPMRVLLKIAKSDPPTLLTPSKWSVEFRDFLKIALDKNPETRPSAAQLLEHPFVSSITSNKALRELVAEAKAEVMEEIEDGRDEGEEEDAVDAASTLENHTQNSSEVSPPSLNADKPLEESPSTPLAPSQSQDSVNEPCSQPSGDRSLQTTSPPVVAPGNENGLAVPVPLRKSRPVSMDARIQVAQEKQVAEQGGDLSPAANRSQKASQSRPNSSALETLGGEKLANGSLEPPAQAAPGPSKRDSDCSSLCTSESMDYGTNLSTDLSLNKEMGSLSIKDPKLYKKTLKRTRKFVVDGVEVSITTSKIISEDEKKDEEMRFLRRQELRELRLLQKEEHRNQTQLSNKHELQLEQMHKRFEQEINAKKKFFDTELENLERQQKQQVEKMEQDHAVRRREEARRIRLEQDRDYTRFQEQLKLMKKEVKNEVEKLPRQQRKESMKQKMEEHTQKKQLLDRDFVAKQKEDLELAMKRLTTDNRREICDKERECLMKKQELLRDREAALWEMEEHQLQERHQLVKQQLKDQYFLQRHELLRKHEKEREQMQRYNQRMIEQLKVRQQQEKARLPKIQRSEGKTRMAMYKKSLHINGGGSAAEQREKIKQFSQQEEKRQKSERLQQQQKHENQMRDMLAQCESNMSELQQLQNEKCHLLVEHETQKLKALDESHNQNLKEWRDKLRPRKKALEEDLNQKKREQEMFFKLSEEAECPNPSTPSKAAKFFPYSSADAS
Mitogen-activated protein kinase kinase kinase kinase 1 (Homo sapiens), sequence (Q92918 whole entry, looked up): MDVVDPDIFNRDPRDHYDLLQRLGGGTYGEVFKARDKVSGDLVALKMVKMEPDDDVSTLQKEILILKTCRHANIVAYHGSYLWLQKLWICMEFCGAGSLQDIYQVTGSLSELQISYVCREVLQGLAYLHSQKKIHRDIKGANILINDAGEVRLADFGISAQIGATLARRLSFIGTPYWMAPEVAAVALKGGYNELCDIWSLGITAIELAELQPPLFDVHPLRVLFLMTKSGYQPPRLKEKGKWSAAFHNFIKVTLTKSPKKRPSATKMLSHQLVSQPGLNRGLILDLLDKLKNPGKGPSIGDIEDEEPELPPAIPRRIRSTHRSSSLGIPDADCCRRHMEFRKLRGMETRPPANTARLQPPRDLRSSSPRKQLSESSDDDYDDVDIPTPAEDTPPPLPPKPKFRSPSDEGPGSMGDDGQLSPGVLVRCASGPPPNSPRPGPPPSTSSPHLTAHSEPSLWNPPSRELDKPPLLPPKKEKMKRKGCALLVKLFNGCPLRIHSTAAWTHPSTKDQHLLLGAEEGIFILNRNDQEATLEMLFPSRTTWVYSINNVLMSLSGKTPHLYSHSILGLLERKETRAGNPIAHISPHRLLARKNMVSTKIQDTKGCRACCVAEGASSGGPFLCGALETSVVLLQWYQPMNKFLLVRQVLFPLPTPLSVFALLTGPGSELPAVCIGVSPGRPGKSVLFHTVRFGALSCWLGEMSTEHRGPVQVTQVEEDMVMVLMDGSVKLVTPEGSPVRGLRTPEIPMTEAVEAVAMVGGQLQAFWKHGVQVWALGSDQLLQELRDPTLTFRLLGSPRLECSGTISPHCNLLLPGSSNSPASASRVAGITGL
4-aminobutyrate aminotransferase, mitochondrial, sequence (P80404 whole entry): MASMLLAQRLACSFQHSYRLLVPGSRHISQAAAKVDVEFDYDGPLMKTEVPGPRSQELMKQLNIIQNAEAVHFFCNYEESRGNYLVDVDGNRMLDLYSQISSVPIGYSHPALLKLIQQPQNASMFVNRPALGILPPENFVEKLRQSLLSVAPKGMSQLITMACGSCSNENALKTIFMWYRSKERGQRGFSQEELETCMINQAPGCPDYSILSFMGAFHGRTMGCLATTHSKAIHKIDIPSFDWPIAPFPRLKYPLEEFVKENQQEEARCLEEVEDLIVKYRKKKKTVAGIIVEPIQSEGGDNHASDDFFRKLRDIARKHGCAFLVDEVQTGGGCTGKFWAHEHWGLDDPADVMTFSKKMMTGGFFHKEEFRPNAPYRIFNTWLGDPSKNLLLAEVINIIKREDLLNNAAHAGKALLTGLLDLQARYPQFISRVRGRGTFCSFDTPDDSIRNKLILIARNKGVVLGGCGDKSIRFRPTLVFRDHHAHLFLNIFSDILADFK

In the case of `Cc1ccc(-c2ccc3c(ccc4sc5c(c43)NC[C@@H](C)NC5=O)n2)cn1`, in assay [1], the IC50 (as a rule, the point on the concentration scale where inhibition reaches its midpoint) amounted to 70 nM. Regarding `Cc1cc([C@@H](C)Nc2ccccc2C(=O)O)c2nc(N3CCOCC3)cc(=O)n2c1` [AZD-6482], in [2], the % of control came out at 100%. Compound `CCC(=O)N1CCN(c2ccc(-n3c(=O)ccc4cnc5ccc(-c6cnc7ccccc7c6)cc5c43)cc2C(F)(F)F)CC1` gave a % of control in assay [3] of 62%. For the compound `CN(C)CCOc1ccc(-c2nc(-c3ccncc3)c(-c3ccc4c(c3)CC/C4=N\O)[nH]2)cc1`, the % of control in assay [4] was 100%.

`CC(=O)c1cc(-c2ccccc2OCC2CC2)c2ncccn12` came in with a % of control in assay [5] of 103%. For the compound `CNC(=O)Nc1ccc(-c2nc(N3CC4CCC(C3)O4)c3cnn(C4CCC5(CC4)OCCO5)c3n2)cc1`, the % of control in [6] is 100%. `CC[C@@H]1[C@H](F)C(=O)N[C@@H]1COc1nccc2cc(C(N)=O)c(OC)cc12` [ZIMLOVISERTIB]: the % of inhibition in assay [7] was -10.5%; in assay [8], 67.7%. Take `COc1cc(N(C)c2ccnc3ccc(C(F)(F)F)cc23)cc(OC)c1OC`: in [9], the % binding worked out at 96%. As for `CCc1ccccc1C(=O)Nc1n[nH]c2c(C)c(F)c(C3C(C#N)=C(C)N(C)C(C)=C3C#N)cc12` [BAY-3827], the Ki (commonly the equilibrium dissociation constant of an inhibitor or competing ligand from its target) in assay [10] stood at 222 nM.

In [11], `O[C@H]1CC[C@H](Nc2ncc3nc(Nc4c(F)cc(F)cc4F)n([C@H]4CCOC4)c3n2)CC1` came in with a % of control of 100%.
